Experiment [1] is described as follows: Bacterial membrane permeabilization assay (carboxyfluorescein leakage from liposomes). It is filed as biochemical. Conditions: large unilamellar liposomes from E. coli phospholipid extract, 45 min, 37 °C.
Experiment [2] relates to A. baumannii. Briefly: MIC, extended panel, broth micro-dilution in MHII (EUCAST/CLSI). It is filed as cell-based. Conditions: Acinetobacter baumannii. How it is done: (§1) Plates were, subsequently, incubated at 37 °C in the dark, and viable colonies counted after 16 to 24 h.
(§2) To estimate MIC values (concentration range between 0.05 and 50 µg/mL), solutions of the tested compounds (100, 10 and 1 and if needed 0.1 µg/mL in MeOH) were dispensed into wells of microtiter plate(s) and the solvent was evaporated in a fume-hood. Subsequently, suspensions of pathogen cells in the appropriate medium were dispensed to the wells of microtiter plates and the growth of pathogens were observed after 16 to 20 h of incubation at 37 °C in the dark. Positive controls were the respective pathogen cells suspended in untreated sterile media without addition of compounds(s) and negative controls were the media only. MIC values were defined as the lowest concentration of each compound with no visible growth of pathogen. All MIC tests were performed in triplicate and […]
(§3) MIC determination for compound 2 against an extended panel of bacterial strains.
(§4) Compound 2 was evaluated against a panel of Gram-negative bacteria (Hughes strain collection), including: A. baumannii ATCC 19606, wild-type; BM4454, multidrug-resistant clinical isolate; BM4652, efflux-defective derivative of BM4454; CH9622, colistin-resistant clinical isolate; E. coli ATCC 25922, wild-type; CH3130, efflux-defective ΔtolC mutant isogenic to ATCC 25922; D22, a drug-hypersensitive lpxC mutant of E. coli; CH3491, multidrug-resistant clinical isolate; CH9623 and CH9624, colistin-resistant clinical isolates carrying mcr-1; K. pneumoniae ATCC 13833, wild-type; […]
(§5) clinical isolate; CH9625 and CH9626, colistin-resistant clinical isolates; P. aeruginosa PAO1, wild-type; PAO750, efflux-defective mutant isogenic to PAO1. The in vitro antimicrobial activity of each compound was determined by measuring the MIC value using the broth micro-dilution technique in cation-adjusted Mueller-Hinton II broth (Becton-Dickinson, 212322) according to EUCAST and CLSI guidelines. Each compound prepared in MHII medium was dispensed into a 96-well round-bottomed microtiter plate to give final assay concentrations from 64 µg/mL down to 0.25 µg/mL (two-fold dilution series in 10 wells, plus two control wells: medium control with no bacteria or compound, and growth control with bacteria added but no compound). Bacteria were prepared from fresh colonies grown on non-selective MHII agar, then suspended in saline to 0.5 McFarland (≅ 1.5 × […]
(§6) 10^8 CFU/mL) with turbidity assessed using a Sensititre Nephelometer (Trek Diagnostics Systems Ltd, UK). 50 µL of this bacterial suspension was transferred to 10 mL of MHII broth to give a final bacterial concentration ≅ 5 × 10^5 CFU/mL (acceptable range 3 – 7 × 10^5 CFU/mL). 50 µL of bacterial suspension was pipetted into each well (except the medium control well, where 50 µL MHII was pipetted). Final volume in each well was 100 µL. Plates were covered and incubated without shaking for 18-20 h at 35 °C ± 2 °C. MIC was read visually, as complete inhibition of growth by the unaided eye, using the medium-only wells as the control. Each compound was assayed at least in duplicate.
(§7) Additionally, the MIC for compound 2 against clinical carbapenem-resistant strains of A. baumannii […]
(§8) determined at the Public Health Agency of Sweden (according to EUCAST recommendations).
(§9) In vitro Cytotoxicity Determination. In vitro cytotoxicity was determined by a fluorometric microculture cytotoxicity assay,7 based on hydrolysis of fluorescein diacetate to fluorescein by cells with intact plasma membranes. In short, HepG2 cells (hepatocellular carcinoma cells, ATCC), in Eagle's Minimum Essential Medium (ATCC) supplemented with 10 % fetal bovine serum, penicillin/streptomycin (100 U/100 µg/mL) and 2 mM L-glutamine, were seeded in 384-well assay plates at a density of 1000 cells/well. The cells were incubated over night at 37°C and compounds in 10 mM DMSO were added, to obtain final concentrations 64 µM – 0.25 µM in two-fold dilutions.
(§10) After incubation for 72 h at 37°C, the cells were pelleted and washed. Fluorescein diacetate was […]
A general note: Dilution methods test growth across graded concentrations, often in twofold steps.

Experiment [3] deals with E. coli. The description is as above. It is filed as cell-based. The settings on record: Escherichia coli. How it is done: as §1, §2, §3, §4, §5, §6, §7, §8, §9, §10
Experiment [4] deals with K. pneumoniae. The description is as above. It is filed as cell-based. Conditions: Klebsiella pneumoniae. As to the method:
as §1, §2, §3, §4, §5, §6, §7, §8, §9, §10

The test system of experiment [5] is P. aeruginosa. The description is as above. In kind it is cell-based. Conditions: Pseudomonas aeruginosa. How it is done: as §1, §2, §3, §4, §5, §6, §7, §8, §9, §10
For experiment [6], the system named is P. aeruginosa. Briefly: MIC determined at the Public Health Agency of Sweden (EUCAST). In kind it is cell-based, Pseudomonas aeruginosa. Conditions: for MIC: Pseudomonas aeruginosa, Public Health Agency of Sweden. As to the method: as §6, §7, §8, §9
After incubation for 72 h at 37°C, the cells were pelleted and washed. Fluorescein diacetate was added (1 µL, 0.5 mg/mL) and the fluorescence [485 nm(exc)/530 nm(em.)] was measured after 50 min at 37°C. Bortezomib (2 µM) was used as positive control and dose response testing of doxorubicin (top concentration 2 µM) was performed repeatedly to follow assay performance over time. Cytotoxicity was assessed after 72 h with cell survival presented as survival index (SI, %) defined as fluorescence in test wells in percent of control cultures with blank values subtracted.
Criteria for a successful assay include a signal-to-noise ratio in control cultures >10, CV <30% and a 7 Lindhagen, E., Nygren, P., and Larsson, R. (2008) The fluorometric microculture cytotoxicity assay. Nat.

The text below walks through data of publication PMC7684578, “Isopedopeptins A–H: Cationic Cyclic Lipodepsipeptides from Pedobacter cryoconitis UP508 Targeting WHO Top-Priority Carbapenem-Resistant Bacteria” (ACS Chemical Biology, 2020).

≈ marks a conversion by molar mass, not a printed value. Where two headings read alike, the source gives them in different places. Starred links: 1 amine or outer side, 2 acyl side, 3 side chain; linkers in the order of their positions; H or OH if unused. Positions of bridges follow the written chain, without caps; N, C: chain ends. Non-standard residues stand in square brackets, D forms with d. Residues, ends and D or L forms follow the SMILES beside them. X5 = CC(C)CCCCCCC[C@H](CC(=O)[*:1])O[*:2]; X2 = CCCCCCC[C@H](CC(=O)[*:1])O[*:2]; Val(3-OH) = CC(C)(O)[C@H](N)C(=O)O; X1 = C/C=C(/N[*:1])C(=O)[*:2]; Dab = NCC[C@H](N)C(=O)O; Dap = NC[C@H](N)C(=O)O

As usually defined, the EC50 is the midpoint of the concentration-response curve. A higher EC50 goes with a less potent agent. A word on the MIC: it is the smallest concentration in the dilution series that meets the test's criterion for growth inhibition.

`C/C=C1/NC(=O)[C@H](CCN)NC(=O)[C@H](CC(C)C)NC(=O)[C@H](CN)NC(=O)C[C@@H](CCCCCCCC(C)C)OC(=O)[C@H](CC(=O)O)NC(=O)[C@H](C(C)(C)O)NC(=O)[C@@H](Cc2ccccc2)NC(=O)[C@H](CN)NC(=O)[C@H]([C@@H](C)O)NC1=O` [Compound 6, Isopedopeptin F] ([Dap]L[Dab][X1]T[Dap][dF][Val(3-OH)]D; linker N-C via X5) yielded an EC50 in experiment [1] of 2 µM.

On to `C/C=C1/NC(=O)[C@H](CCN)NC(=O)[C@H](CC(C)C)NC(=O)[C@H](CN)NC(=O)C[C@@H](CCCCCCC)OC(=O)[C@H](CC(=O)O)NC(=O)[C@H](C(C)(C)O)NC(=O)[C@@H](Cc2ccccc2)NC(=O)[C@H](CN)NC(=O)[C@H]([C@@H](C)O)NC1=O` [Compound 2, isopedopeptin B] ([Dap]L[Dab][X1]T[Dap][dF][Val(3-OH)]D; linker N-C via X2), for which the MIC in experiment [2] (ATCC19606, WT, read-out: MIC A. baumannii ATCC19606) is 8 µg/mL (≈ 7.16 µM); in experiment [2] (Col (colistin-resistant), read-out: MIC A. baumannii EN0287), 8 µg/mL (≈ 7.16 µM); in experiment [2] (MDR clinical, read-out: MIC A. baumannii BM4454), 8 µg/mL (≈ 7.16 µM); in experiment [2] (read-out: MIC A. baumannii BM4652, efflux-defective derivative of BM4454), 8 µg/mL (≈ 7.16 µM); in experiment [2] (read-out: MIC colistin-resistant strains of A. baumannii, strains not named), no less than 8 µg/mL; in experiment [3] (ATCC25922, WT, read-out: MIC E. coli ATCC25922), 8 µg/mL (≈ 7.16 µM). Besides, the MIC in experiment [3] (ATCC25922, read-out: MIC E. coli CH3130, ΔtolC mutant isogenic to ATCC25922) was determined as 8 µg/mL (≈ 7.16 µM); in experiment [3] (ESC, CIP, GEN, SXT, read-out: MIC E. coli CH3491) it was 8 µg/mL (≈ 7.16 µM); in experiment [3] (read-out: MIC E. coli D22, lpxC mutant, hypersensitive), 4 µg/mL (≈ 3.58 µM); in experiment [4] (ATCC13833, WT, read-out: MIC K. pneumoniae ATCC13833) it was 4 µg/mL (≈ 3.58 µM); in experiment [4] (Col, read-out: MIC K. pneumoniae CH9625), 4 µg/mL (≈ 3.58 µM); in experiment [4] (Col, read-out: MIC K. pneumoniae CH9626), 4 µg/mL (≈ 3.58 µM). The MIC is 8 µg/mL (≈ 7.16 µM) in experiment [4] (ESC, CARBA, CIP, GEN, AMK, SXT, TET, clinical multidrug-resistant, read-out: MIC K. pneumoniae CH3498); 8 µg/mL (≈ 7.16 µM) in experiment [4] (WT, read-out: MIC K. pneumoniae 1161486); 8 µg/mL (≈ 7.16 µM) in experiment [4] (read-out: MIC K. pneumoniae 1161486a, ΔtolC mutant isogenic to 1161486); no less than 4 µg/mL in experiment [4] (read-out: MIC colistin-resistant strains of K. pneumoniae, strains not named); 32 µg/mL (≈ 28.6 µM) in experiment [5] (PAO1, read-out: MIC P. aeruginosa PAO750); 32 µg/mL (≈ 28.6 µM) in experiment [5] (PAO1, WT, read-out: MIC P. aeruginosa PAO1). Moreover, the MIC in experiment [6] (ATCC27853, WT, read-out: MIC P. aeruginosa ATCC27853) stood at 4 µg/mL (≈ 3.58 µM); in experiment [6] (CARBA, read-out: MIC P. aeruginosa PS826), 4 µg/mL (≈ 3.58 µM); in experiment [6] (CARBA, read-out: MIC P. aeruginosa PS992), 4 µg/mL (≈ 3.58 µM). Besides, in experiment [6] (summary in text over strains, strains not named), the “MIC carbapenem-resistant P. aeruginosa” value was no less than 4 µg/mL.
